Laboratory results from patent US7598244B2, “[1,2,4]triazolo[1,5,a]pyrimidin-2-ylurea derivative and use thereof” (Nippon Kayaku Kabushiki Kaisha, priority 2003, dated 2009).
Where two headings read alike, the source gives them in different places. One block for each compound: values may come before it.

How the values were obtained:
BALB/c mice [1] = assay: Effect on mouse plaque forming cells (PFCs) to sheep erythrocytes; type: in vivo; details: Intraperitoneal, 25 mg/kg/single administration, twice a day for 4 days
Description: Effect on Mouse Plaque Forming Cells (PFCs)
Sheep erythrocytes (Nippon Seibutsu Zairyo Center, Co., Ltd.) were intraperitoneally administered to each of BALB/c mice (Charles River Japan, Inc.; female; 8-week-old) at an amount of 1.0×10^8 cells. Thereafter, a test compound was administered thereto twice a day for 4 days after the first administration (only once on the first day) (n=4). On the day subsequent to completion of the administration of the test compound, splenic cells were prepared from the mouse, and the number of PFCs to the sheep erythrocytes was counted by the method of Cunninham (Cunninham, A. J. et al., Immunology, vol. 14, p. 599 (1968)). The number of PFCs per number of splenic cells of 1.0×10^6 was obtained. The reduction rate of the number of PFC in the mouse to which the test compound had been administered, to the number of PFCs in a control mouse to which the test compound had not been administered but only a solvent had been administered, was calculated using the following formula (4).
[formula] • Eexp: The number of PFCs per 1×10^6 splenic cells of mouse to which test compound was administered • Cexp: The number of PFCs per 1×10^6 splenic cells of mouse to which solvent was administered

[2] = test system: MHC class I molecules of human peripheral blood-derived dendritic cells; assay: Effect on expression of MHC class I molecules from human peripheral blood-derived dendritic cells; type: cell-based; details: dendritic cells matured with TNF-α, 3 days; read-out: EC50 (reduction of 50% of the number of cells wherein MHC class I molecules were highly expressed)
Excerpt: Effect on Expression of MHC Class I Molecules from Human Peripheral Blood-Derived Dendritic Cells
Monocytes were isolated from human peripheral blood by the specific gravity centrifugation method. Thereafter, using mouse anti-human CD14 antibody-binding microbeads and a magnetic cell separation system (Miltenyi Biotec), CD14 positive cells were separated from the peripheral blood monocytes. The separated CD14 positive cells were suspended in an RPMI 1640 medium containing 10% FBS, and the suspension was then inoculated in a 6-well plate, resulting in a concentration of 1.0×10^6 cells/well. It was cultured at 37° C. for 20 minutes in an incubator containing 5% carbon dioxide. […] Thereafter, RPMI 1640 containing a 500 U/ml human recombinant […] (hereinafter referred to as GM-CSF; Anapure Bioscientific), 50 ng/ml human recombinant interleukin 4 (hereinafter referred to as IL-4; Pepro Tech), and 10% FBS, was added to the remaining suspension at a concentration of 2 ml/well. The obtained mixture was then cultured at 37° C. in an incubator containing 5% carbon dioxide. When adhesive CD14 positive cells are cultured in the presence of GM-CSF and IL-4, the CD14 positive cells were differentiated into non-adhesive immature dendritic cells. After the cells had been cultured for 7 days, non-adhesive cells were recovered to obtain immature dendritic cells. Using a 6-well plate, the immature dendritic cells (2.5×10^5 cells/well) were cultured in RPMI 1640 containing a 100 U/ml human recombinant tumor necrosis factor-α (hereinafter referred to as TNF-a; Pepro Tech), a test compound, and 10% FBS, at 37° C. for 3 days in an incubator containing 5% carbon dioxide. The dendritic cells became mature as a result of the presence of TNF-α, but in the present test, a test compound was allowed to simultaneously act on the cells. The mature dendritic cells were then stained with fluoroisothiocyanate-labeled mouse anti-human MHC class I monoclonal antibody (an antibody generated from the cell line W6/32 (ATCC No. CRL 1991)). The rate of the number of cells wherein MHC class I molecules were highly expressed to the total number of cells was measured by flow cytometry. The reduction rate of the number of cells wherein MHC class I molecules were highly expressed was calculated using the following formula (2), and the concentrations of test compounds necessary for reduction of 50% (EC50 values) were obtained.
[formula] • Eexp: (The number of cells, wherein MHC class I molecules are highly expressed, in cultured cells containing test compound)/(the total number of cells) • Cexp: (The number of cells, wherein MHC class I molecules are highly expressed, in cultured cells containing no test compounds)/(the total number of cells)

[3] = test system: human dendritic cells cultured with human allogenic T cells; assay: Effect on the ability of human dendritic cells to induce the growth of allogenic T cells ([3H]-thymidine incorporation); type: cell-based; details: dendritic cells treated 3 days with test compound and TNF-α, then 5 days with allogenic T cells, read-out: IC50 (inhibition of DNA synthesis of lymphocytes)
Description: Effect on the Ability of Human Dendritic Cells to Induce the Growth of Allogenic T Cells
Immature dendritic cells were cultured with a test compound and TNF-α for 3 days by the same method as that described in Test Example 2. The obtained dendritic cells (2.5×10^3 cells/50 μl/well) were cultured together with human allogenic T cells (2.0×10^5 cells/150 μl/well) in a 96-well flat bottom plate at 37° C. for 5 days in an incubator containing 5% carbon dioxide. Thereafter, [^3H]-thymidine (Amersham Pharmacia Biotech) was added thereto at an amount of 1 μCi/10 μl/well, 16 hours before completion of the culture. After completion of the culture, cells were captured on a glass filter using a cell harvester (Skatron Instrument) and then dried. Thereafter, Scintillator ACS-II (Amersham Pharmacia Biotech) was added thereto, and the radioactivity of [^3H]-thymidine incorporated into the cells were then measured using a liquid scintillation counter. The inhibition rate of the DNA synthesis of lymphocytes was calculated using the following formula (3). Thereafter, the concentration of a test compound necessary for inhibition of 50% (IC50 value) was obtained.
[formula] • Eexp: The amount of [^3H]-thymidine incorporated into cultured cells containing test compound • Cexp: The amount of [^3H]-thymidine incorporated into cultured cells containing no test compounds

[4] = test system: MHC class I molecules of T1 cells (human lymphoma cell line 174×CEM.); assay: Effect on expression of MHC class I from T1 cells (flow cytometry, MFI); type: cell-based; details: 3 days culture
Summary of the method: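 EC20 is the compound level that lowers MHC class I MFI by 20% relative to compound-free cultures. Read-out was flow cytometry after FITC W6/32 staining.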

BDF1 mice = assay: Effect on graft versus host (GVH) reaction, spleen weight measurement method; type: in vivo, mouse; details: subcutaneous, twice a day for 7 days
Description: Effect on Graft Versus Host (GVH) Reaction
The effect of the compound on the GVH reaction was determined in accordance with the spleen weight measurement method of Simonsen et al. (Simonsen et al., Annals of the New York Academy of Sciences, p. 73 (1978)). Splenic cells were prepared from C57BL/6 mice (Charles River Japan, Inc.; female; 10-week-old), and the cells (5.0×10^6 cells) were transferred into the abdominal cavity of each of BDF1 mice (Charles River Japan; […]). From the day of transferring of the above cells, the test compound having each diluted concentration or a 5% glucose solution used as a solvent was subcutaneously administered to the BDF1 mice twice a day for 7 consecutive days. Eight days after the transferring of the above cells, the spleen weight of each of the BDF1 mice was measured. The reduction rate of the spleen weight was calculated using the following formula (6). The amount of the test compound necessary for reduction of 50% (ED50 value) was obtained.
[formula] • Eexp: Spleen weight of mouse to which test compound was administered • Cexp: Spleen weight of mouse to which solvent was administered

[5] = test system: (C57BL/6XB6. C—H2^bml) F1 mice; assay: Life-lengthening effect on graft versus host disease (GVHD); type: in vivo, mouse; details: oral, once a day
Description: Life-Lengthening Effect on Graft Versus Host Disease (GVHD)
The present test was carried out by modification of the method of Jonathan et al. (Jonathan et al., Blood, p. 93 (1999)). First, 6.0 Gy X-ray was applied to (C57BL/6XB6. C—H2^bml) F1 mice (produced by mating 6XB6.C—H2^bml mice (Jackson Laboratory) with C57BL/6 mice (Charles River Japan); female; 8 to 12-week-old). Thereafter, CD8 positive T cells (1.25×10^6 cells) prepared from the splenic cells of C57BL/6 mice (Charles River Japan; female; 8-week-old) were intravenously injected into the above (C57BL/6XB6. C—H2^bml) F1 mice. From the day before the injection, the test compound having each diluted concentration or 0.5% carboxymethyl cellulose used as a solvent was orally administered to the mice once a day for 7 to 30 consecutive days. The day on which the transplantation was conducted was defined as day 0. Based on the median of the survival days of each group, the prolongation rate of such survival dates was calculated using the following formula (7). Thus, the effect of the test compound on GVHD was analyzed.
[formula] • Eexp: Median of survival days of test compound administration group • Cexp: Median of survival days of solvent administration group

mouse splenic cells = assay: Inhibitory action on blastogenesis of mouse splenic cells ([3H]-thymidine incorporation); type: cell-based; details: 72 hours
Description: Inhibitory Action on Blastogenesis of Mouse Splenic Cells
The spleen was excised from each of BALB/c mice (Charles River Japan; female; 10-week-old), and it was allowed to pass through a mesh to obtain a single cell suspension. This single cell suspension was prepared to be 1.0×10^6 cells/ml. Thereafter, 200 μl of the suspension was fractionated into each well of a 96-well plate. Thereafter, as blastogenic stimulation, 5 μg/ml concanavalin A (Pharmacia) or 25 μg/ml Escherichia coli-derived lipopolysaccharide (DIFCO) was added to the well, and then, a solution containing a test compound with each different concentration was further added thereto at an amount of 20 μl/well. The obtained mixture was cultured at 37° C. for 72 hours in an incubator containing 5% carbon dioxide. Thereafter, a 1 μCi/10 μl/well [^3H]-thymidine solution was added thereto 64 hours after initiation of the culture. After completion of the culture (72 hours later), the cells were captured on a filter using a cell harvester, and they were then dried. Thereafter, scintillator was added thereto, and the radioactivity of [^3H]-thymidine incorporated into the cells was then measured using a liquid scintillation counter. The inhibition rate of the DNA synthesis was calculated using the aforementioned formula (3). Thereafter, the concentration of a test compound necessary for inhibition of 50% (IC50 value) was obtained.

BALB/c mice [6] = assay: Effect on mouse delayed-type hypersensitivity reaction (DTH reaction), swelling of the sole; type: in vivo; details: Intraperitoneal, administration period 7 days, 100 mg/kg/single administration
Description: Effect on Mouse Delayed-Type Hypersensitivity Reaction (DTH Reaction)
1.0×10^5 sheep erythrocytes (Nippon Seibutsu Zairyo Center, Co., Ltd.) were administered to each of BALB/c mice (Charles River Japan, Inc.; female; 8-week-old) by intravenous injection for sensitization. From the day of administration of the sheep erythrocytes, a test compound was administered to the mouse. As a control, a 0.5% carboxymethyl cellulose (CMC)-Na solution and a normal saline solution used as solvents were administered to the same type of mouse via oral administration or intraperitoneal administration. Five days after the antigen sensitization, 1.0×10^8 sheep erythrocytes were subcutaneously injected into the sole of the mouse. 24 hours later, the thickness of the sole was measured. The value obtained by subtracting the mean value of the thicknesses of the soles of mice, to which a normal saline solution had been administered instead of the sheep erythrocytes, from the above measurement value, was defined as swelling of the sole generated as a result of the DTH reaction. The inhibition rate of the swelling of the sole caused by the DTH reaction was calculated using the following formula (5). The amount of the test compound necessary for inhibition of 50% (ED50 value) was obtained as the activity of the test compound to inhibit the DTH reaction. It is to be noted that cyclosporin A was used as a positive control.
[formula] • Eexp: Swelling of sole of mouse to which test compound was administered • Cexp: Swelling of sole of mouse to which solvent was administered

[7] = 100 mg/kg/single administration

EC50 [2]: 200 nM
SMILES: COc1ccc(-c2ccnc3nc(NC(=O)N[C@H]4CC[C@H](O)CC4)nn23)cc1 [Example 037]
Reduction rate (%) of number of PFCs (BALB/c mice [1]): 31.2%
IC50 ([3]; Homo sapiens): 1360 nM
EC20 (concentration necessary for suppressing 20% of the expression level of MHC class I molecules) [4]: 200 nM

EC50 [2]: 540 nM
SMILES: COc1ccc(-c2ccnc3nc(NC(=O)NCc4cccnc4)nn23)cc1 [Example 039]
Inhibition rate (%) (reduction rate of the spleen weight) (BDF1 mice; 25 × 2 mg/kg/single administration): 14.1%
Inhibition rate (%) (reduction rate of the spleen weight) (BDF1 mice; 50 × 2 mg/kg/single administration): 29.5%
IC50 ([3]; Homo sapiens): 1520 nM
EC20 (concentration necessary for suppressing 20% of the expression level of MHC class I molecules) [4]: 300 nM

SMILES: COc1ccc(-c2ccnc3nc(NC(=O)N[C@@H](C)c4cccc(OC)c4)nn23)cc1 [Example 132]
Lengthening rate of survival days (%) [5, 7]: 200%
IC50 (mouse splenic cells; 5 μg/ml concanavalin A, read-out: Lymphocyte blastogenesis IC50 (μM), ConA stimulation): 0.08 µM
IC50 (mouse splenic cells; 25 μg/ml Escherichia coli-derived lipopolysaccharide, read-out: Lymphocyte blastogenesis IC50 (μM), LPS stimulation): 0.06 µM
IC50 [3]: 625 nM
EC20 (concentration necessary for suppressing 20% of the expression level of MHC class I molecules) [4]: 39 nM

SMILES: COc1ccc(-c2ccnc3nc(NC(=O)N[C@H](C(=O)NCCN4CCCCC4)C(C)C)nn23)cc1.Cl [Example 135]
Inhibition rate (%) of swelling of the sole (BALB/c mice [6]): 40.2%
EC20 (concentration necessary for suppressing 20% of the expression level of MHC class I molecules) [4]: 810 nM

SMILES: CCOCCC(C)NC(=O)Nc1nc2nccc(-c3ccc(OC)cc3)n2n1 (centres unmarked) [Example 274]
Lengthening rate of survival days (%) [5, 7]: 55%
EC20 (concentration necessary for suppressing 20% of the expression level of MHC class I molecules) [4]: 110 nM

SMILES: COc1cccc([C@H](C)NC(=O)Nc2nc3nccc(-c4ccc5c(c4)OCO5)n3n2)c1 [Example 300, (S)-1-[1-(3-methoxyphenyl)ethyl]-3-[7-(3,4-methylenedioxyphenyl)-[1,2,4]triazolo[1,5-a]pyrimidin-2-yl]urea]
Lengthening rate of survival days (%) ([5]; 10 mg/kg/single administration): 100%
EC20 (concentration necessary for suppressing 20% of the expression level of MHC class I molecules) [4]: 19 nM

SMILES: COc1ccc(-c2ccnc3nc(NC(=O)N[C@@H](C)CCCC(C)(C)O)nn23)cc1 [Example 319, (S)-1-(5-hydroxy-1,5-dimethylhexyl)-3-[7-(4-methoxyphenyl)-[1,2,4]triazolo[1,5-a]pyrimidin-2-yl]urea]
Lengthening rate of survival days (%) ([5]; 10 mg/kg/single administration): 200%
Lengthening rate of survival days (%) ([5]; 50 mg/kg/single administration): 200%
EC20 (concentration necessary for suppressing 20% of the expression level of MHC class I molecules) [4]: 20 nM
